# Laboratory results: patent US11225480B2, “Malic enzyme inhibitors” (SUN PHARMA ADVANCED RESEARCH COMPANY LTD, priority 2019, dated 2022)
# Experiments:
# Type in all cases: biochemical
# [1] = biological target: T1, human ME1 enzyme (Homo sapiens, UniProt P48163); experiment: ME1 inhibition assay (diaphorase/resazurin coupled fluorescence); settings: 10 μM compound concentration; read-out: Malic Enzyme 1 % inhibition (10 μM)
# T1 sequence (P48163 1-572): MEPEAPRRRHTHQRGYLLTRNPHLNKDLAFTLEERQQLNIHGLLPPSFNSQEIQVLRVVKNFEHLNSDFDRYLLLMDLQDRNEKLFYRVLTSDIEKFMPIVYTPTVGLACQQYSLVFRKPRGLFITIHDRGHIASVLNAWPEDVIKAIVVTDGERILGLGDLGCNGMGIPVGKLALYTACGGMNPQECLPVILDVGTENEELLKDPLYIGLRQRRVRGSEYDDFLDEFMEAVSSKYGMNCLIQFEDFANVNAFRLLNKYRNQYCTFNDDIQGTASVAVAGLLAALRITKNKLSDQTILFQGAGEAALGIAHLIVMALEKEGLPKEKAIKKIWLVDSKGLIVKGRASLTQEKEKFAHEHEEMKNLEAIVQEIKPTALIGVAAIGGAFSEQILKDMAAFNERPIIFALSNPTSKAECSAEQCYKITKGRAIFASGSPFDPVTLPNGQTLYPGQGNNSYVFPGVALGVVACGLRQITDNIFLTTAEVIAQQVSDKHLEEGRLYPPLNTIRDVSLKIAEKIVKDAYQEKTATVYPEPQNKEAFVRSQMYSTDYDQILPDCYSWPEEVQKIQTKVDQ
# Summary of the method: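 Compounds at 10 μM preincubated 15 min in 50 mM Tris-HCl pH 7.5, 10 mM MnCl2, 2 mM L-malate, 10 μM resazurin, 0.01 mg/ml diaphorase, then human ME1 added for 5 min; reaction started with NADP+ and run 2 h at room temperature. Resorufin fluorescence (ex 540/em 600 nm) normalized to enzyme-only (100%) and no-enzyme (0%) controls.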
# [2] = biological target: human ME2 enzyme (Homo sapiens, UniProt P23368); experiment: ME2 inhibition assay (diaphorase/resazurin coupled fluorescence); settings: 10 μM compound concentration; read-out: Malic Enzyme 2 % inhibition (10 μM)
# Summary of the method: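 Human ME2 (10 μL of 60 nM) was preincubated 5 min at room temperature with compound (10 μM) in 50 mM Tris-HCl pH 7.5, 10 mM MnCl2, 7 mM L-malate, 50 μM resazurin and 0.025 mg/ml diaphorase. The reaction was started with 10 μL of 2 mM β-NAD+ and run 2 hours at room temperature. Resorufin fluorescence (ex 540/em 600 nm) was normalized to enzyme-only (100%) and no-enzyme (0%) controls as % activity.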
# [3] = biological target: T2, human ME3 enzyme (Homo sapiens, UniProt Q16798); experiment: ME3 inhibition assay (diaphorase/resazurin coupled fluorescence); settings: 10 μM compound concentration; read-out: Malic Enzyme 3 % inhibition (10 μM)
# T2 sequence (Q16798 1-604): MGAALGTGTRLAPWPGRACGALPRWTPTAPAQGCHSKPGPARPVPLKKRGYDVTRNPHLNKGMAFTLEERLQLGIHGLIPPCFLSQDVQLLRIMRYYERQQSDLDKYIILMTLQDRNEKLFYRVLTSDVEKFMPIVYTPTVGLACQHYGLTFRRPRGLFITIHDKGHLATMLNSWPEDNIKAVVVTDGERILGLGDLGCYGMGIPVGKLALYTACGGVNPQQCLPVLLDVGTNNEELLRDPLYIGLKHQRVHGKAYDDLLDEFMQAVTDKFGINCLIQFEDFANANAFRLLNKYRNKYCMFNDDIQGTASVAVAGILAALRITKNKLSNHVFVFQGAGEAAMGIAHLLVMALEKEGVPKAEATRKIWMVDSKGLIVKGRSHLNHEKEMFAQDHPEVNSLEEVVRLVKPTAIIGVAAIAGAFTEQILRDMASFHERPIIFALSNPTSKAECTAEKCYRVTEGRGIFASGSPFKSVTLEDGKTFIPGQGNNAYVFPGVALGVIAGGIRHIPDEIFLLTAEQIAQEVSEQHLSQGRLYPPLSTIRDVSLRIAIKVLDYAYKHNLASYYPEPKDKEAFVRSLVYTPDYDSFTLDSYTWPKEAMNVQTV
# Summary of the method: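 Coupled read-out: NADPH made by human ME3 (20 nM stock) drives diaphorase conversion of resazurin (50 μM) to resorufin; buffer 50 mM Tris-HCl pH 7.5, 10 mM MnCl2, 3 mM L-malate.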
# Chain of human ME2 enzyme (P23368 19-584): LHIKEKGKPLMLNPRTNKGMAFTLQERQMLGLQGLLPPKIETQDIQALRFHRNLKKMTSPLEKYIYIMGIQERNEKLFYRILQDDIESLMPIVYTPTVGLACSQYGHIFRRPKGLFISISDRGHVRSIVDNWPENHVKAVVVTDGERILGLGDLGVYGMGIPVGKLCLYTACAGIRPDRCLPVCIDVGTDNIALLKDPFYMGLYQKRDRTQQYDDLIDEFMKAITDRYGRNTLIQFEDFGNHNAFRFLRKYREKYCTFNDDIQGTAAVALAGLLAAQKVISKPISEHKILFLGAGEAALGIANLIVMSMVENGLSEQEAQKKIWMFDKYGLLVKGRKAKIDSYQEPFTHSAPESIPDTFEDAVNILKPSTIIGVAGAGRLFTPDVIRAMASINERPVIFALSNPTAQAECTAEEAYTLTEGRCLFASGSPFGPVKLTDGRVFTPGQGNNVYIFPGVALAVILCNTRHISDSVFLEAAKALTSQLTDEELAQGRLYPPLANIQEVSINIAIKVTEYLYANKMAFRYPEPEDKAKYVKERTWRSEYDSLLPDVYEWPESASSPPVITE
SMILES,inhibition at 10 µM [1],inhibition at 10 µM [2],inhibition at 10 µM [3]
"O=C(CCc1c[nH]c2ccccc12)N1CCN(c2ccc(O)cn2)CC1 [I.51, 1-[4-(5-Hydroxy-pyridin-2-yl)-piperazin-1-yl]-3-(1H-indol-3-yl)-propan-1-one]",70 to 89%,70 to 89%,> 90%
"O=C(c1c[nH]c2ccccc2c1=O)N1CCN(c2ccc(O)cc2)CC1 [I.47, 3-[4-(4-Hydroxy-phenyl)-piperazine-1-carbonyl]-1H-quinolin-4-one]",> 90%,> 90%,> 90%
"O=C(Cc1ccc(F)cc1F)N1CCN(c2ccc(O)cc2)CC1 [I.149, 2-(2,4-difluoro-phenyl)-1-[4-(4-hydroxy-phenyl)-piperazin-1-yl]-ethanone]",> 90%,> 90%,> 90%
"O=C(CCc1ccc(F)c(F)c1)N1CCN(c2ccc(O)cn2)CC1 [I.153, 3-(3,4-Difluoro-phenyl)-1-[4-(5-hydroxy-pyridin-2-yl)-piperazin-1-yl]-propan-1-one]",> 90%,> 90%,> 90%
"Cc1cc(F)ccc1CCC(=O)N1CCN(c2ccc(O)cn2)CC1 [I.145, 3-(4-Fluoro-2-methyl-phenyl)-1-[4-(5-hydroxy-pyridin-2-yl)-piperazin-1-yl]-propan-1-one]",> 90%,> 90%,> 90%
"O=C(CC1c2ccccc2-c2ccccc21)N1CCN(c2ccc(O)cn2)CC1 [I.61, 2-(9H-Fluoren-9-yl)-1-[4-(5-hydroxy-2-pyridyl)-piperazin-1-yl]ethanone]",70 to 89%,70 to 89%,> 90%
O=C(c1c[nH]c2ccccc12)N1CCN(c2ccc(O)cc2)CC1 [I.2],> 90%,> 90%,> 90%
"O=C(CC=C(c1ccccc1)c1ccccc1)N1CCN(c2ccc(O)cn2)CC1 [I.94, 1-[4-(5-Hydroxy-2-pyridyl)-piperazin-1-yl]-4,4-diphenyl-but-3-en-1-one]",70 to 89%,70 to 89%,> 90%
"CC(C)(CC(=O)N1CCN(c2ccc(O)cn2)CC1)c1ccccc1 [I.125, 1-[4-(5-Hydroxy-pyridin-2-yl)-piperazin-1-yl]-3-methyl-3-phenyl-butan-1-one]",> 90%,> 90%,> 90%
"O=C(CCC1CC1)N1CCN(c2ccc(O)cn2)CC1 [I.140, 3-Cyclo-propyl-1-[4-(5-hydroxy-2-pyridyl)-piperazin-1-yl]propan-1-one]",> 90%,> 90%,> 90%
"O=C(Cc1ccccc1)N1CCN(c2ccc(O)cn2)CC1 [I.6, 1-[4-(5-Hydroxy-pyridin-2-yl)-piperazin-1-yl]-2-phenyl-ethanone]",> 90%,> 90%,> 90%
"O=C(C1Cc2ccccc2C1)N1CCN(c2ccc(O)cn2)CC1 [I.67, [4-(5-Hydroxy-pyridin-2-yl)-piperazin-1-yl]-indan-2-yl-methanone]",> 90%,50 to 69%,> 90%
"O=C(c1c[nH]c2ccccc2c1=O)N1CCN(c2ccc(O)cn2)CC1 [I.54, 3-[4-(5-Hydroxy-2-pyridyl)-piperazine-1-carbonyl]-1H-quinolin-4-one]",70 to 89%,50 to 69%,> 90%
O=C(c1c2ccccc2cc2ccccc12)N1CCN(c2ccc(O)cn2)CC1 [I.64],70 to 89%,50 to 69%,> 90%
"O=C(CCC1CCCCC1)N1CCN(c2ccc(O)cn2)CC1 [I.121, 3-Cyclohexyl-1-[4-(5-hydroxy-2-pyridyl)-piperazin-1-yl]propan-1-one]",> 90%,> 90%,> 90%
"O=C(CCc1ccc(Cl)c(Cl)c1)N1CCN(c2ccc(O)cn2)CC1 [I.79, 3-(3,4-Dichloro-phenyl)-1-[4-(5-hydroxy-pyridin-2-yl)-piperazin-1-yl]-propan-1-one]",> 90%,> 90%,> 90%
"O=C(c1c2ccccc2nc2ccccc12)N1CCN(c2ccc(O)cc2)CC1 [I.9, Acridin-9-yl-[4-(4-hydroxy-phenyl)-piperazin-1-yl]-methanone]",> 90%,> 90%,> 90%
"Cc1cccc(Cl)c1C(=O)N1CCN(c2ccc(O)cc2)CC1 [I.154, (2-Chloro-6-methylphenyl)-[4-(4-hydroxy-phenyl)-piperazin-1-yl]-methanone]",> 90%,> 90%,> 90%
"O=C(C=C(c1ccccc1)c1ccccc1)N1CCN(c2ccc(O)cn2)CC1 [I.74, 1-[4-(5-Hydroxy-2-pyridyl)-piperazin-1-yl]-3,3-diphenyl-prop-2-en-1-one]",> 90%,70 to 89%,> 90%
"O=C(CNCC12CC3CC(CC(C3)C1)C2)N1CCN(c2ccc(O)cn2)CC1 [I.57, 2-(1-adamantylmethylamino)-1-[4-(5-hydroxy-2-pyridyl)piperazin-1-yl]ethanone]",70 to 89%,70 to 89%,> 90%
"O=C(CCn1ccc2ccccc21)N1CCN(c2ccc(O)cn2)CC1 [I.135, 1-[4-(5-Hydroxy-pyridin-2-yl)-piperazin-1-yl]-3-indol-1-yl-propan-1-one]",70 to 89%,> 90%,> 90%
"O=C(CC12CC3CC(CC(C3)C1)C2)N1CCN(c2ccc(O)cn2)CC1 [I.55, 2-(1-adamantyl)-1-[4-(5-hydroxy-2-pyridyl)piperazin-1-yl]ethanone]",> 90%,70 to 89%,> 90%
"COC(=O)c1ccccc1CCC(=O)N1CCN(c2ccc(O)cn2)CC1 [I.142, 2-{3-[4-(5-Hydroxy-pyridin-2-yl)-piperazin-1-yl]-3-oxo-propyl}-benzoic acid methyl ester]",70 to 89%,> 90%,> 90%
"Cc1cccc(C)c1CCC(=O)N1CCN(c2ccc(O)cn2)CC1 [I.147, 3-(2,6-Dimethyl-phenyl)-1-[4-(5-hydroxy-pyridin-2-yl)-piperazin-1-yl]-propan-1-one]",> 90%,> 90%,> 90%
"O=C(C1CC(O)(c2ccccc2)C1)N1CCN(c2ccc(O)cn2)CC1 (stereo not drawn) [I.124, (3-Hydroxy-3-phenylcyclo-butyl)-[4-(5-hydroxy-pyridin-2-yl)-piperazin-1-yl]-methanone]",> 90%,> 90%,> 90%
"O=C(CCc1ccc(Cl)cc1)N1CCN(c2ccc(O)cn2)CC1 [I.82, 3-(4-Chloro-phenyl)-1-[4-(5-hydroxy-pyridin-2-yl)-piperazin-1-yl]-propan-1-one]",> 90%,> 90%,> 90%
"O=C(O)c1cccc(-c2cc(C(=O)N3CCN(c4ccc(O)cc4)CC3)ccn2)c1 [I.39, 3-[4-[4-(4-Hydroxy-phenyl)-piperazine-1-carbonyl]-2-pyridyl]-benzoic acid]",> 90%,> 90%,> 90%
